The text below walks through data of patent publication US9238020B2, “Compositions comprising enzyme-cleavable phenol-modified tapentadol prodrug” (priority 2010, dated 2016).

The nature of data set [1]: Plasma and cerebrospinal fluid penetration following IV administration to rats. The format is in vivo, rat. The settings on record: for concentration at 2 min: male, Sprague Dawley, rat, in vivo, TP-1 10 mg/kg, tapentadol 4 mg/kg. The procedure:
Compound TP-1 (which can be prepared as described in the examples herein) at a dose of 10 mg/kg, or tapentadol, at a dose of 4 mg/kg, were dissolved in saline and injected into the tail vein of 4 male Sprague Dawley rats. These doses represent approximately equimole amounts. After 2 minutes, the rats were anesthetized by carbon dioxide asphyxiation, blood samples were drawn and harvested for plasma by centrifugation at 5,400 rpm at 4° C. for 5 min, and 100 μl plasma was transferred from each sample into a fresh tube containing 2 μl of 50% formic acid. The CSF fluid was collected using a 22×1 inch gauge needle connected to polyurethane catheter type MRE-040 tubing (Braintree Scientific, Inc., Braintree, Mass.). The needle was inserted just below the nuchal crest at the area of the foramen magnum, and clear CSF fluid was collected into the catheter and transferred into a collection tube. The CSF samples were centrifuged at 5,400 rpm at 4° C. for 5 min, and 100 μl CSF fluid was transferred from each sample into a fresh tube. The plasma and CSF samples were immediately placed in dry ice and then stored in a −80° C. freezer until analysis by high performance liquid chromatography/mass spectrometry (HPLC/MS). In order to study Compound TP-1 and tapentadol plasma and CSF penetration over time, additional groups of 4 rats were administered compounds as described above and anesthetized at specified time points. Plasma and CSF were collected and analyzed as described above.
Results in Table 14 are reported, for each group of four rats, as mean concentrations of the indicated compounds in plasma or CSF. Table 14 also provides the plasma-to-CSF (plasma/CSF) partitioning coefficient, i.e., the ratio of concentration in the plasma to concentration in the CSF of the indicated compounds.

Data set [2] can be described thus: In vitro stability of Compound TP-1 to household chemicals and enzyme preparations. The class given is physicochemical. As for the experimental part:
Compound TP-1 (which can be prepared as described in the examples herein) was exposed at room temperature (RT) or 80° C. for either 1 or 24 hours (hr) to the following household chemicals: vodka (40% alcohol), baking soda (saturated sodium bicarbonate solution, pH 9), WINDEX® with Ammonia-D (pH 11) and vinegar (5% acetic acid). Compound TP-1 was also exposed to the following enzyme-containing compositions at RT for 1 or 24 hr: GNC® Super Digestive (2 capsules of GNC Super Digestive Enzymes dissolved in 5 mL of water), tenderizer (Adolf's meat tenderizer, primarily papain, dissolved in water to a concentration of 0.123 g/mL to approximate the concentration of a marinade given on the bottle label), and subtilisn (8 tablets of ULTRAZYME® contact lens cleaner (Advanced Medical Optics, Milpitas, Calif.) dissolved in 4 mL water). Samples were incubated as described and aliquots removed at 1 hr and 24 hr and stabilized by adding each to a solution of 50% or 100% of 85% phosphoric acid solution to achieve a final pH of less than or equal to pH 4. The stabilized aliquots were then diluted 4- to 6-fold with water, vortex-mixed and applied to HPLC.
The solid black bars indicate the percentage of Compound TP-1 remaining after exposure, and the lightly shaded bars with a black outline indicate the percentage conversion of Compound TP-1 to tapentadol.

Data set [3] in a line: Pharmacokinetics of prodrug and tapentadol following IV administration to rats. The settings on record: male, Sprague Dawley, in vivo; prodrug in rat plasma; TP-1 IV 2 mg/kg (3 μmol/kg); read-out: TP-1 Cmax ± sd. As for the experimental part: Compound TP-1 (which can be prepared as described in the examples herein) was dissolved in saline and injected into the tail vein of 4 jugular vein-cannulated male Sprague Dawley rats at a dose of 2 mg/kg. At specified time points, blood samples were drawn, harvested for plasma via centrifugation at 5,400 rpm at 4° C. for 5 min, and 100 μl plasma transferred from each sample into a fresh tube containing 2 μl of 50% formic acid. The tubes were vortexed for 5-10 seconds, immediately placed in dry ice and then stored in a −80° C. freezer until analysis by high performance liquid chromatography/mass spectrometry (HPLC/MS).
Table 2 and FIG. 4 provide Compound TP-1 and tapentadol exposure results for rats administered Compound TP-1 intravenously. Results in Table 2 are reported as maximum plasma concentration (Cmax) of Compound TP-1 and tapentadol (TP), respectively, (average±standard deviation).
Compound TP-3 or Compound TP-4 (which can be prepared as described in the examples herein), or tapentadol were dissolved in saline and injected into the tail vein of four jugular vein-cannulated male Sprague Dawley rats at a dose of 2 mg/kg. Sampling and analysis procedures were as described in Example 12.

Data set [4] deals with human μ-opioid receptor (Homo sapiens, UniProt P35372). Nature of the data set: In vitro human μ-opioid receptor agonist cellular functional assay (cAMP, CHO cells). Particulars: CHO cells expressing human μ-opioid receptor, 37° C., 10 min. The format is cell-based. Set-up: expressed in transfected cells. The procedure: The general procedure follows the protocol described by J.-B. Wang, et al, ibid. More specifically, the assay included as appropriate, Compound TP-1 or tapentadol and recombinant Chinese hamster ovary (CHO) cells expressing the human μ-opioid receptor on their cell surfaces. The control reaction included 1 μM DAMGO. The reaction mixtures were incubated at 37° C. for 10 min, and the reaction product was cyclic AMP (cAMP). The samples were submitted to homogeneous time resolved fluorescence (HTRF®). EC50 values (concentration producing a half-maximal specific response) were determined by non-linear regression fit using Hill plot software.
human μ-opioid receptor, sequence (P35372 whole entry): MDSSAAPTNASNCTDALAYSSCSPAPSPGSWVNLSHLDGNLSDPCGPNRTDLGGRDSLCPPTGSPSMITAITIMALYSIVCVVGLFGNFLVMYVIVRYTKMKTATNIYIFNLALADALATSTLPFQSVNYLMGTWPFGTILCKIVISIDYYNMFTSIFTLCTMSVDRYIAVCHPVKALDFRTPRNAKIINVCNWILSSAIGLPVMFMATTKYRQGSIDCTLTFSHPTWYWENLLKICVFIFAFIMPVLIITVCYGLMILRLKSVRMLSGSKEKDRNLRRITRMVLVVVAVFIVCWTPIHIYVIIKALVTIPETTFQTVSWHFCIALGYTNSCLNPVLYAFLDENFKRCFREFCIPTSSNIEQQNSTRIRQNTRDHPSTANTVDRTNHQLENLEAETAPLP

Read-outs that look alike come from different tables or passages of the source.

Turning to `CC[C@@H](c1cccc(OC(=O)N(C)CCNC(=O)[C@H](CCCNC(=N)N)NC(=O)CC(=O)O)c1)[C@@H](C)CN(C)C` [Compound TP-1, N—[(S)-1-(2-{[3-((1R,2R)-3-dimethylamino-1-ethyl-2-methyl-propyl)-phenoxycarbonyl]-methyl-amino}-ethylcarbamoyl)-4-guanidino-butyl]-malonamic acid], the “relative plasma/CSF partitioning coefficient of Compound TP-1 to tapentadol (fold less CSF-penetrant)” value in data set [1] (671/10.4) was “about 64 fold”. Also, the concentration at 2 min in data set [1] (rats, IV, 2 minutes after dosing, read-out: Compound conc. in CSF) is 65.3 ng/mL; in data set [1] (rats, IV, 2 minutes after dosing, read-out: Compound conc. in Plasma) it was 43800 ng/mL. For the same compound, the Plasma/CSF partitioning coefficient in data set [1] (rats, IV, 2 minutes after dosing, ratio of concentration in plasma to concentration in CSF) was 671. Also, the conversion to tapentadol entry in data set [2] (all other conditions (household chemicals at RT or 80° C., enzyme preparations at RT, 1 or 24 hr)) is “less than 10%”; in data set [2] (sodium bicarbonate at 80° C. or Windex at 80° C. for 24 hr) it was 10-20%. In data set [3], the Cmax (commonly the peak of the concentration-time curve) is 965 ± 160 ng/mL. Also, the “agonist response in the μ-opioid receptor functional assay” value in data set [4] was “weak response was seen at 100 μM”.
